From publication PMC2862277 (The Journal of neuroscience : the official journal of the …, 2010)
“And” between values parts separate entries of the source, which are not always exact repeats. Identical values can stand only once. Like-named read-outs stand apart in the source and are kept apart here.

Assays:
NR1/NR2C [1] = target: T1, NR1/NR2C (Rattus norvegicus, UniProt P35439+Q00961); experiment: Two electrode voltage clamp recording from Xenopus laevis oocytes; assay type: cell-based
NR1/NR2B(E790Q) = NR1/NR2B(E790Q) (Rattus norvegicus, UniProt P35439+Q00960, E790Q); experiment: TEVC recording from Xenopus oocytes, mutant receptor; assay type: cell-based
NR1/NR2B = NR1/NR2B (Rattus norvegicus, UniProt P35439+Q00960); experiment: Two electrode voltage clamp recording from Xenopus laevis oocytes; assay type: cell-based; settings: relative to maximal glycine (100 μM), 100 μM glutamate
NR1(Y692A)/NR2C = NR1(Y692A)/NR2C (Rattus norvegicus, UniProt P35439+Q00961, Y692A); experiment: TEVC recording from Xenopus oocytes, mutant receptor; assay type: cell-based
NR1/NR2C(Q800A) = NR1/NR2C(Q800A) (Rattus norvegicus, UniProt P35439+Q00961, Q787A); experiment: as above; assay type: cell-based
NR1(E781A)/NR2C = NR1(E781A)/NR2C (Rattus norvegicus, UniProt P35439+Q00961, E781A); experiment: as above; assay type: cell-based
NR1/NR2C(R703A) = NR1/NR2C(R703A) (Rattus norvegicus, UniProt P35439+Q00961, R690A); experiment: as above; assay type: cell-based
NR1/NR2A = NR1/NR2A (Rattus norvegicus, UniProt P35439+Q00959); experiment: Two electrode voltage clamp recording from Xenopus laevis oocytes; assay type: cell-based; settings: relative to maximal glycine (100 μM), 100 μM glutamate
NR1(E781A)/NR2B = NR1(E781A)/NR2B (Rattus norvegicus, UniProt P35439+Q00960, E781A); experiment: TEVC recording from Xenopus oocytes, mutant receptor; assay type: cell-based
NR1(Y692A)/NR2B = NR1(Y692A)/NR2B (Rattus norvegicus, UniProt P35439+Q00960, Y692A); experiment: as above; assay type: cell-based
NR1/NR2C [2] = target: T1, NR1/NR2C; assay type: cell-based
NR1/NR2B(R693A) = NR1/NR2B(R693A) (Rattus norvegicus, UniProt P35439+Q00960, R693A); experiment: TEVC recording from Xenopus oocytes, mutant receptor; assay type: cell-based
NR1(Y692A)/NR2A = NR1(Y692A)/NR2A (Rattus norvegicus, UniProt P35439+Q00959, Y692A); experiment: as above; assay type: cell-based
[3] = ref McBain et al., 1989; cited from earlier work
NR1/NR2C [4] = target: T1, NR1/NR2C; experiment: Single-channel recording from outside-out patches containing one active channel; assay type: cell-based
NR1/NR2C(S707N,R710P) = NR1/NR2C(S707N,R710P) (Rattus norvegicus, UniProt P35439+Q00961, R697P/S694N); experiment: TEVC recording from Xenopus oocytes, mutant receptor; assay type: cell-based
NR1/NR2C [5] = target: T1, NR1/NR2C; experiment: Least-squares fitting of Scheme 1a to macroscopic currents; assay type: cell-based
NR1(R523A)/NR2C = NR1(R523A)/NR2C (Rattus norvegicus, UniProt P35439+Q00961, R523A); experiment: TEVC recording from Xenopus oocytes, mutant receptor; assay type: cell-based
NR1/NR2A(E798Q) = NR1/NR2A(E798Q) (Rattus norvegicus, UniProt P35439+Q00959, E789Q); experiment: as above; assay type: cell-based
NR1/NR2D = NR1/NR2D (Rattus norvegicus, UniProt P35439+Q62645); experiment: Two electrode voltage clamp recording from Xenopus laevis oocytes; assay type: cell-based; settings: relative to maximal glycine (100 μM), 100 μM glutamate
NR1/NR2C [6] = target: T1, NR1/NR2C; experiment: Maximum interval likelihood fitting of Scheme 1 to single channel data; assay type: cell-based
NR1/NR2D(E791Q) = NR1/NR2D(E791Q) (Rattus norvegicus, UniProt P35439+Q62645, E814Q); experiment: TEVC recording from Xenopus oocytes, mutant receptor; assay type: cell-based
NR1/NR2B(E790A) = NR1/NR2B(E790A) (Rattus norvegicus, UniProt P35439+Q00960, E790A); experiment: as above; assay type: cell-based
NR1(Y692A)/NR2D = NR1(Y692A)/NR2D (Rattus norvegicus, UniProt P35439+Q62645, Y692A); experiment: as above; assay type: cell-based
NR1/NR2C(Q800E) = NR1/NR2C(Q800E) (Rattus norvegicus, UniProt P35439+Q00961, Q787E); experiment: as above; assay type: cell-based
NR1(R755A)/NR2C = NR1(R755A)/NR2C (Rattus norvegicus, UniProt P35439+Q00961, R755A); experiment: as above; assay type: cell-based
NR1(R523A)/NR2B = NR1(R523A)/NR2B (Rattus norvegicus, UniProt P35439+Q00960, R523A); experiment: as above; assay type: cell-based
[7] = 1 s concentration jump from DCS into glutamate plus DCS
[8] = 1 mM agonist + 1 mM glutamate, 0.5 mM Ca2+
[9] = 1 mM agonist + 1 mM glutamate, 0.5 mM Ca2+, reversal potential assumed 0 mV
[10] = Figure 7B, paired recordings glycine vs DCS
[11] = average of 6 individually fitted patches
[12] = composite open time histogram from 6 patches
[13] = composite shut time histogram from 6 patches
[14] = representative recording from one patch (Figure 8B)
[15] = Table 2, Scheme I (Monte Carlo simulation of gating model)
[16] = this particular patch (Figure 8B), MIL fit Scheme 1

T1 sequence (Q00961 20-1237, other chains not shown): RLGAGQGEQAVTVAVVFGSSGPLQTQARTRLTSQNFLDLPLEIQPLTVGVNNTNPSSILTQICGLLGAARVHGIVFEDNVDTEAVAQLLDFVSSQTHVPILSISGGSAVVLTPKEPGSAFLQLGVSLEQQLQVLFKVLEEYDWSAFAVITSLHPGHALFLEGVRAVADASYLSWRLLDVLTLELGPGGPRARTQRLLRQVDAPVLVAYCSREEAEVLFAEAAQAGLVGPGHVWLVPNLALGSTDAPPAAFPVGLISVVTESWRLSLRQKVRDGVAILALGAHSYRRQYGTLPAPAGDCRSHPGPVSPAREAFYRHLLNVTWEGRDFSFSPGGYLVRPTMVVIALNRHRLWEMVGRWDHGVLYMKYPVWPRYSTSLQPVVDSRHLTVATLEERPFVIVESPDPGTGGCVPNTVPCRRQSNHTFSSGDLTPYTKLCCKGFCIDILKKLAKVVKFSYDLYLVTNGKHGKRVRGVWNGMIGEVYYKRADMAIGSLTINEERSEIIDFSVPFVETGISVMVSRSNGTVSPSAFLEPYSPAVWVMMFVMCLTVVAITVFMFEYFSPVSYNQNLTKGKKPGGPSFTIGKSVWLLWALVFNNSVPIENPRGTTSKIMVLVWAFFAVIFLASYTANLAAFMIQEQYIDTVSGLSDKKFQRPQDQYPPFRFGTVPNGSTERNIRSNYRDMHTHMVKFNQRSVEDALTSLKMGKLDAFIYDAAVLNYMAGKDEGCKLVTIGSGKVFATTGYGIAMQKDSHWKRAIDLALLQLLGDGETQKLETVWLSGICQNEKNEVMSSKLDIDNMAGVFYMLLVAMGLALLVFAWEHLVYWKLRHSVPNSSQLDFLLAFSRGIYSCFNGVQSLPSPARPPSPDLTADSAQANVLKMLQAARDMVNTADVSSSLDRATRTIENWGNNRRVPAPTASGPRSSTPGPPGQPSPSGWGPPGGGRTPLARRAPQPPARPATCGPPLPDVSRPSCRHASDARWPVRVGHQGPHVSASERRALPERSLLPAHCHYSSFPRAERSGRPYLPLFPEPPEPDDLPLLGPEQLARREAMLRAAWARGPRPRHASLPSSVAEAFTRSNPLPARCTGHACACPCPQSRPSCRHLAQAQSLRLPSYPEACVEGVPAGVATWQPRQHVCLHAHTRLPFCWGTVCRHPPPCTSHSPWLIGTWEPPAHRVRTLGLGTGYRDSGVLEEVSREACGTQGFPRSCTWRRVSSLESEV
NR1(R755A)/NR2C, sequence (Q00961 20-1237, other chains not shown): as above
NR1/NR2B(R693A), sequence (Q00960 27-1482 R693A, other chains not shown): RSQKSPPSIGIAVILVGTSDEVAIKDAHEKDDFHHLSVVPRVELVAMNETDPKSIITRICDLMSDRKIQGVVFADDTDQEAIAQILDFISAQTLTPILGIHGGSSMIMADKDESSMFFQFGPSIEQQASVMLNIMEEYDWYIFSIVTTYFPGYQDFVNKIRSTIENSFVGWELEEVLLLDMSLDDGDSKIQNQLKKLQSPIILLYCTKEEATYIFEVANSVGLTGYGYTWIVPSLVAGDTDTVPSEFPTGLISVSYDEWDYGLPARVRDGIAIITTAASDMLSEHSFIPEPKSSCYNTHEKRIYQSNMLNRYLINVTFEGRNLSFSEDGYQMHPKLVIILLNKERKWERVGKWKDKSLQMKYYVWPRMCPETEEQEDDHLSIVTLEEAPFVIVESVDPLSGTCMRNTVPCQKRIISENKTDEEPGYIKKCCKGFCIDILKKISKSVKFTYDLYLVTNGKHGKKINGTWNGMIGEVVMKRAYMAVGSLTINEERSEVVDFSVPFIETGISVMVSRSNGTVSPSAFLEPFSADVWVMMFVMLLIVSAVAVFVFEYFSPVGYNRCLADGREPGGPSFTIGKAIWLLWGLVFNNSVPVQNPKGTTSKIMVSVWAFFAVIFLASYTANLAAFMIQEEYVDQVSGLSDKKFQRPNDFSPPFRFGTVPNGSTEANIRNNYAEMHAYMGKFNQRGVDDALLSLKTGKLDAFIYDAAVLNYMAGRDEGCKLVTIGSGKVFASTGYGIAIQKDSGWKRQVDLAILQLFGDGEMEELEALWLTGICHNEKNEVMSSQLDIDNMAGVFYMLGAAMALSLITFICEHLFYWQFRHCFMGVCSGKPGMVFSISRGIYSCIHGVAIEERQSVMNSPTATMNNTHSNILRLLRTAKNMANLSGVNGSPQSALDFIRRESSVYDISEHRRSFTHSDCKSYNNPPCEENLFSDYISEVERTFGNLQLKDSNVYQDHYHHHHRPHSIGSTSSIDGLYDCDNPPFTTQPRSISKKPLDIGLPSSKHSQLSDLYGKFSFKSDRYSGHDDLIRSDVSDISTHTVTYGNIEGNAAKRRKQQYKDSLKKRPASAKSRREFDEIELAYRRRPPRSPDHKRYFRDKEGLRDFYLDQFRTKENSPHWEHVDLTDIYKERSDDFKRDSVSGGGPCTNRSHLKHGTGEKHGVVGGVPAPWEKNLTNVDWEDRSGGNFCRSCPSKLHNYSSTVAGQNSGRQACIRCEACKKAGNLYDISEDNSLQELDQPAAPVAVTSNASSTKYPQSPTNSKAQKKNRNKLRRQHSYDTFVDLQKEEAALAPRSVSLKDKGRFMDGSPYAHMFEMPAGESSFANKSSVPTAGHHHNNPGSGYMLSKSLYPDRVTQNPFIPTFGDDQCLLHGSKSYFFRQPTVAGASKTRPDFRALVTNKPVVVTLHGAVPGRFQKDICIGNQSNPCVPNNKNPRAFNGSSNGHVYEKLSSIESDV
NR1/NR2B(E790Q), sequence (Q00960 27-1482 E790Q, other chains not shown): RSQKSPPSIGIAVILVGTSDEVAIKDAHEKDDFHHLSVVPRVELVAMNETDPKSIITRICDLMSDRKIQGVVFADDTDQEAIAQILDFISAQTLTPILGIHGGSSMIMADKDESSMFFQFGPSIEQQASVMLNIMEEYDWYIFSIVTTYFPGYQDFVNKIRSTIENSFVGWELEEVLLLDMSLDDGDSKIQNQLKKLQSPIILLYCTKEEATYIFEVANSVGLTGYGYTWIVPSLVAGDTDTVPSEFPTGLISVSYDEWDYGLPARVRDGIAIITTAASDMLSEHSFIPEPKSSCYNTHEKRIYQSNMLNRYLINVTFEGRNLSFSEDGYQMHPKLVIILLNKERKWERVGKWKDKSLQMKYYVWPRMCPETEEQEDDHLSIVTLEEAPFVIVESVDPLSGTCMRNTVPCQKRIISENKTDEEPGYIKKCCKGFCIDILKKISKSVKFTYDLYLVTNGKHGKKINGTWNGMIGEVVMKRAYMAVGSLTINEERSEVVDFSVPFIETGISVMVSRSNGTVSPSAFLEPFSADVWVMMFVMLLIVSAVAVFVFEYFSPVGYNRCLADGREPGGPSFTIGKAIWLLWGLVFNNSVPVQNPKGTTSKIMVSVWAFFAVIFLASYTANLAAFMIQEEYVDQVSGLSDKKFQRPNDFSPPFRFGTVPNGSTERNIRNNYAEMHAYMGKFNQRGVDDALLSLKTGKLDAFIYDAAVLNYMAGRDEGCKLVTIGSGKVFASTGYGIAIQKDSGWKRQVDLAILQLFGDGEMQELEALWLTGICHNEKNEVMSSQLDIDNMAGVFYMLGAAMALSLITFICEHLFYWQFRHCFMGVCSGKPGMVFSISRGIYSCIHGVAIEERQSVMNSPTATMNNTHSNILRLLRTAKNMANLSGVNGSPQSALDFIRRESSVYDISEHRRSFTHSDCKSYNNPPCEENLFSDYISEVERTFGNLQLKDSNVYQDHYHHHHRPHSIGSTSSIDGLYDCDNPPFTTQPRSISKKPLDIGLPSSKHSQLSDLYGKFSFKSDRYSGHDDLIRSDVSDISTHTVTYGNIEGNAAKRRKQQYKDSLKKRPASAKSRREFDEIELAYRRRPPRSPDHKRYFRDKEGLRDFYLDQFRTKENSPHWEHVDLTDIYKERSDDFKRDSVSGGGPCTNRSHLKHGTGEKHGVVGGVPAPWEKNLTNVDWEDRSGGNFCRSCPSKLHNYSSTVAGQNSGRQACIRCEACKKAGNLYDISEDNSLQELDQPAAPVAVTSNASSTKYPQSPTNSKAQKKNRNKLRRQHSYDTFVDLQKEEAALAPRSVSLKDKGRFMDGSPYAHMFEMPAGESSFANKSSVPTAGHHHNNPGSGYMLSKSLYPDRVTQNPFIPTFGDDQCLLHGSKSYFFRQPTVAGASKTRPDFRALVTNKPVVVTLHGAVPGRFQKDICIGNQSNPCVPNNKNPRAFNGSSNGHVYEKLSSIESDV
NR1/NR2C(Q800E), sequence (Q00961 20-1237 Q787E, other chains not shown): as the sequence (Q00961 20-1237, other chains not shown) above, with Q768E counted along it
NR1/NR2C(S707N,R710P), sequence (Q00961 20-1237 S694N/R697P, other chains not shown): as the sequence (Q00961 20-1237, other chains not shown) above, with S675N, R678P counted along it
NR1/NR2C(Q800A), sequence (Q00961 20-1237 Q787A, other chains not shown): as the sequence (Q00961 20-1237, other chains not shown) above, with Q768A counted along it
NR1(Y692A)/NR2C, sequence (Q00961 20-1237, other chains not shown): as the sequence (Q00961 20-1237, other chains not shown) above
NR1(E781A)/NR2C, sequence (Q00961 20-1237, other chains not shown): as above
NR1(R523A)/NR2C, sequence (Q00961 20-1237, other chains not shown): as above
NR1/NR2C(R703A), sequence (Q00961 20-1237 R690A, other chains not shown): as the sequence (Q00961 20-1237, other chains not shown) above, with R671A counted along it

N[C@@H](CCC(=O)O)C(=O)O [glutamate]
EC50 (NR1/NR2C [1]; read-out: EC50 for glutamate): 420 ± 40 nM

N[C@@H]1CON=C1O [DCS, D-cycloserine]
DCS Efficacy (% glycine) (NR1/NR2B(E790Q)): 78 ± 1 % glycine
DCS Efficacy (% glycine) (NR1/NR2B): 65 ± 2 % glycine
DCS Efficacy (% glycine) (NR1(Y692A)/NR2C): 59 ± 2 % glycine
DCS Efficacy (% glycine) (NR1/NR2C(Q800A)): 191 ± 7 % glycine
DCS Efficacy (% glycine) (NR1(E781A)/NR2C): 150 ± 10 % glycine
DCS Efficacy (% glycine) (NR1/NR2C [1]; NR1/NR2C, relative to maximal glycine (100 μM), 100 μM glutamate): 190 ± 6 % glycine and 190 % glycine
DCS Efficacy (% glycine) (NR1/NR2C(R703A)): 190 ± 4 % glycine
DCS Efficacy (% glycine) (NR1/NR2A): 90 ± 2 % glycine
DCS Efficacy (% glycine) (NR1(E781A)/NR2B): 10 ± 1 % glycine
DCS Efficacy (% glycine) (NR1(Y692A)/NR2B): 46 ± 1 % glycine
Rise time (NR1/NR2C [2]; [7]): 3.8 ± 0.7 ms
glutamate deactivation time course (NR1/NR2C [2]; [7]): 242 ± 50 ms
Deactivation (NR1/NR2C [2]; Table 3, Experimental): 130 to 160 ms
Desensitization (τ1) (NR1/NR2C [2]; Table 3, Experimental): 32 ms
Desensitization (τ2) (NR1/NR2C [2]; Table 3, Experimental): 540 ms
Rise time (NR1/NR2C [2]; Table 3, Experimental): 3.1 to 4.9 ms
DCS Efficacy (% glycine) (NR1/NR2B(R693A)): 68 ± 3 % glycine
DCS Efficacy (% glycine) (NR1(Y692A)/NR2A): 77 ± 1 % glycine
pKa for exocyclic amine [3]: 7.5
pKa for the exocyclic oxygen [3]: 4.5
area of larger conductance level (NR1/NR2C [4]; [8]): 72 ± 8%
area of smaller conductance level (NR1/NR2C [4]; [8]): 28 ± 5%
conductance level (larger) (NR1/NR2C [4]; [9]): 45 ± 5 pS
conductance level (smaller) (NR1/NR2C [4]; [9]): 28 ± 3 pS
mean duration of all open periods (NR1/NR2C [4]; 1 mM agonist + 1 mM glutamate, 6 one-channel patches): 0.61 ± 0.06 ms
open probability (Po) (NR1/NR2C [4]; 1 mM agonist + 1 mM glutamate, patches with a single active channel): 0.029 ± 0.006
mean open time, % of control (glycine) (NR1/NR2C [4]; DCS vs glycine, paired patches): 132%
open probability, % of control (glycine) (NR1/NR2C [4]; DCS vs glycine, paired patches): 163%
mean open time increased by, in the presence of DCS (NR1/NR2C [4]; [10]): 131 ± 4%
open probability increased by, in the presence of DCS (NR1/NR2C [4]; [10]): 194 ± 33%
MOT (mean open time) (NR1/NR2C [4]; Table 2, Experimental): 0.57 ms
Steady state Po (NR1/NR2C [4]; Table 3, Experimental): 0.028
area of shut τ2 (NR1/NR2C [4]; [11]): 10%
area of shut τ3 (NR1/NR2C [4]; [11]): 30%
area of shut τ4 (NR1/NR2C [4]; [11]): 36%
area of shut τ5 (NR1/NR2C [4]; [11]): 5%
shut time constant τ1 (NR1/NR2C [4]; [11]): 0.04 ± 0.005 ms
shut time constant τ2 (NR1/NR2C [4]; [11]): 0.55 ± 0.16 ms
shut time constant τ3 (NR1/NR2C [4]; [11]): 8.5 ± 1.2 ms
shut time constant τ4 (NR1/NR2C [4]; [11]): 34 ± 4 ms
shut time constant τ5 (NR1/NR2C [4]; [11]): 220 ± 79 ms
area of open time τ1 (NR1/NR2C [4]; [12]): 49%
area of open time τ2 (NR1/NR2C [4]; [12]): 51%
open time constant τ1 (NR1/NR2C [4]; [12]): 0.32 ms
open time constant τ2 (NR1/NR2C [4]; [12]): 0.76 ms
area of shut τ2 (NR1/NR2C [4]; [13]): 10%
area of shut τ3 (NR1/NR2C [4]; [13]): 36%
area of shut τ4 (NR1/NR2C [4]; [13]): 32%
area of shut τ5 (NR1/NR2C [4]; [13]): 3%
shut time constant τ1 (NR1/NR2C [4]; [13]): 0.037 ms
shut time constant τ2 (NR1/NR2C [4]; [13]): 0.48 ms
shut time constant τ3 (NR1/NR2C [4]; [13]): 9.5 ms
shut time constant τ4 (NR1/NR2C [4]; [13]): 36 ms
shut time constant τ5 (NR1/NR2C [4]; [13]): 248 ms
apparent mean open time (NR1/NR2C [4]; [14]): 0.52 ms
open probability (NR1/NR2C [4]; [14]): 0.026
DCS Efficacy (% glycine) (NR1/NR2C(S707N,R710P)): 190 ± 7 % glycine
Deactivation (NR1/NR2C [5]; Scheme Ia): 245 ms
Desensitization (τ1) (NR1/NR2C [5]; Scheme Ia): 15 ms
Desensitization (τ2) (NR1/NR2C [5]; Scheme Ia): 130 ms
Peak Po (NR1/NR2C [5]; Scheme Ia): 0.042
Rise time (NR1/NR2C [5]; Scheme Ia): 2.4 ms
Steady state Po (NR1/NR2C [5]; Scheme Ia): 0.030
Residual (normalized residual sum of squares) (NR1/NR2C [5]; Scheme Ia macroscopic fit): 2.67 × 10^−3
d1+ (NR1/NR2C [5]; Scheme Ia macroscopic fit): 1.4 s⁻¹
d1− (NR1/NR2C [5]; Scheme Ia macroscopic fit): 5.7 s⁻¹
d2+ (NR1/NR2C [5]; Scheme Ia macroscopic fit): 6.7 s⁻¹
d2− (NR1/NR2C [5]; Scheme Ia macroscopic fit): 16 s⁻¹
b+ (agonist binding rate) (NR1/NR2C [5]; glutamate binding step, Scheme Ia, with the labelled NR1 agonist): 560000 M⁻¹ s⁻¹
b− (unbinding rate) (NR1/NR2C [5]; glutamate unbinding step, Scheme Ia, with the labelled NR1 agonist): 3.4 s⁻¹
DCS Efficacy (% glycine) (NR1(R523A)/NR2C): 254±20 % glycine
DCS Efficacy (% glycine) (NR1/NR2A(E798Q)): 90 ± 2 % glycine
DCS Efficacy (% glycine) (NR1/NR2D): 94 ± 2 % glycine
d1+ (NR1/NR2C [6]; MIL fit Scheme 1, six patches): 1.2 ± 0.4 s⁻¹
d1− (NR1/NR2C [6]; MIL fit Scheme 1, six patches): 4.2 ± 1.0 s⁻¹
d2+ (NR1/NR2C [6]; MIL fit Scheme 1, six patches): 25 ± 8 s⁻¹
d2− (NR1/NR2C [6]; MIL fit Scheme 1, six patches): 38 ± 7 s⁻¹
k1+ (NR1/NR2C [6]; MIL fit Scheme 1, six patches): 420 ± 80 s⁻¹
k1− (NR1/NR2C [6]; MIL fit Scheme 1, six patches): 1270 ± 340 s⁻¹
k2+ (forward rate of the fast gating step) (NR1/NR2C [6]; MIL fit Scheme 1, six patches): 1395 ± 215 s^−1 and 1395± 215 ^* s^−1
k2− (NR1/NR2C [6]; MIL fit Scheme 1, six patches): 17510 ± 2135 s⁻¹
k3+ (NR1/NR2C [6]; MIL fit Scheme 1, six patches): 4795 ± 815 s⁻¹
k3− (closing rate) (NR1/NR2C [6]; MIL fit Scheme 1, six patches): 2150 ± 210 s^−1 and 2150 ± 210 ^* s^−1
k4+ (NR1/NR2C [6]; MIL fit Scheme 1, six patches): 75 ± 35 s⁻¹
k4− (NR1/NR2C [6]; MIL fit Scheme 1, six patches): 1070 ± 130 s⁻¹
MOT (mean open time) (NR1/NR2C [6]; [15]): 0.61 ms
Po (NR1/NR2C [6]; [15]): 0.029
LL/event (log likelihood per event) (NR1/NR2C [6]; goodness of MIL fit of Scheme 1): 4.86 ± 0.05
rate constant k2+ (NR1/NR2C [6]; [16]): 2150 s⁻¹
rate constant k3− (NR1/NR2C [6]; [16]): 2388 s⁻¹
DCS Efficacy (% glycine) (NR1/NR2D(E791Q)): 110 ± 1 % glycine
DCS Efficacy (% glycine) (NR1/NR2B(E790A)): 68 ± 3 % glycine
DCS Efficacy (% glycine) (NR1(Y692A)/NR2D): 75 ± 1 % glycine
DCS Efficacy (% glycine) (NR1/NR2C(Q800E)): 130 ± 4 % glycine
DCS Efficacy (% glycine) (NR1(R755A)/NR2C): 100 % glycine and 100 ± 5 % glycine
DCS Efficacy (% glycine) (NR1(R523A)/NR2B): 31±2 % glycine
